These results are taken from patent publication US4567293A, “2-[Para-(2-substituted or unsubstituted-3,3,3-tri-fluoropropyl)phenyl]propionic acid or a salt thereof” (Kureha Kagaku Kogyo Kabushiki Kaisha, priority 1981, dated 1986).

The nature of one data set: in vivo. As to conditions: oral, mouse, in olive oil, 14 days observation. The method, then:
Acute toxicity of the present compound were determined as follows.
Each of the specimens was dispersed in an olive oil. The dispersion was administered to an ICR-JCL mouse orally by a stomach sonde at a predetermined amount. After administration, the intoxication symptoms were continuously observed for 14 days. LD50 value was obtained from the cumulative mortality of the mice by applying the data to the Litchfield-Wilcoxon's graphical method.

For data set [1], the system named is carrageenin-induced edema. The data set is described as follows: Anti-inflammatory activity: inhibition of carrageenin-induced edema (Example 6). The class given is in vivo, rat (female Wister). As to conditions: 4 hours after carrageenin. On the procedure:
Anti-inflammatory activity of the present compound was examined by using 10 female Wister rats of 110 to 130 g of body weight as one group following the method of C. A. Winter [refer to Proc. Soc. Exp. Biol. Med., 111, 544(1962)]in which the ratio of inhibiting the carrageenin-induced edema is determined.
(§1) An aqueous suspension of each specimen in an aqueous 1% carboxymethoxycellulose solution was orally administered to the rat in volume of 1 ml per 100 g body weight. The rat as the control group was administered with only an aqueous 1% solution of carboxymethoxycellulose. One hour after the administration, 0.1 ml of an aqueous 1% solution of carrageenin in physiological saline was injected into the plantar tissue of the right hind paw of the rat. Then, after 4 hours from the injection, the volume of the injected foot was measured to find the volume of swelling by subtracting the volume of foot before the injection from that value.
(§2) By comparing the volume of the swelling of the administered group to that of the control group, the ratio of inhibiting the swelling (I.R., %) was calculated according to the following formula: [formula] wherein T represents the average volume of swelling in the group administered with the specimen, and
(§3) C represents the average volume of swelling in the control group.

The test system of data set [2] is carrageenin-induced edema. The data set is described as follows: Anti-inflammatory activity: inhibition of carrageenin-induced edema (Example 7, rats of 92 to 112 g). The format is in vivo, rat (female Wister). The method, then:
[…] A. Winter [refer to Proc. Soc.
as §1, §2, §3

As for `CC(C(=O)O)c1ccc(CC(C(F)(F)F)C(F)(F)F)cc1` (centres unmarked) [Specimen I, 2-[p-(2-trifluoromethyl-3,3,3-trifluoropropyl)phenyl]propionic acid], in the data set “in vivo”, the LD50 at 336 h was found to be 1100 mg/kg. Moreover, the “Inhibitation of carrageenin-induced edema” value (shortened to “Inhibitation”) came to 37% in data set [1] (oral dose 2.5 mg/Kg); 40% in data set [1] (oral dose 5 mg/Kg); 46% in data set [1] (oral dose 10 mg/Kg); 50% in data set [1] (oral dose 25 mg/Kg); 55% in data set [1] (oral dose 50 mg/Kg); 57% in data set [1] (oral dose 100 mg/Kg). Further, the “Inhibitation” value in data set [1] (oral dose 200 mg/Kg) was 63%.

In turn, `CC(C(=O)O)c1ccc(CC(C)C(F)(F)F)cc1` (centres unmarked) [Specimen II, 2-[p-(2-methyl-3,3,3-trifluoropropyl)phenyl]propionic acid] yielded an LD50 at 336 h in “in vivo” of 1040 mg/kg. Besides, the “Inhibitation” value in data set [1] (oral dose 5 mg/Kg) came out at 37%; in data set [1] (oral dose 10 mg/Kg), 40%; in data set [1] (oral dose 50 mg/Kg), 50%; in data set [1] (oral dose 100 mg/Kg), 54%; in data set [1] (oral dose 200 mg/Kg), 65%.

`CC(C(=O)O)c1ccc(CCC(F)(F)F)cc1` (centres unmarked) [Specimen III, 2-[p-(3,3,3-trifluoropropyl)phenyl]propionic acid] had an LD50 at 336 h in the data set “in vivo” of 1000 mg/kg. In addition, the “Inhibition of carrageenin-induced edema” value is listed as 38% in data set [2] (oral dose 25 mg/kg) and 44% in data set [2] (oral dose 100 mg/kg).

On to `CC(C)Cc1ccc(C(C)C(=O)O)cc1` (centres unmarked) [Specimen IV, 2-(p-isobutylphenyl)propionic acid, reference compound], for which the “Inhibitation” value is on record as 29% in data set [1] (oral dose 25 mg/Kg), 40% in data set [1] (oral dose 50 mg/Kg), 42% in data set [1] (oral dose 100 mg/Kg) and 52% in data set [1] (oral dose 200 mg/Kg).

Regarding `CC(=O)Oc1ccccc1C(=O)O` [Specimen V, acetyl salicyclic acid, reference compound], the “Inhibition of carrageenin-induced edema” value is given as 10% in data set [2] (oral dose 25 mg/kg) and 28% in data set [2] (oral dose 100 mg/kg).

Broadly, the LD50 is the dose expected to kill half of the subjects tested.
